Laboratory results taken from paper PMC3447897 (Diabetes, 2012).
Residues, ends and D or L forms follow the SMILES beside them.

Columns and labels:
HLA-B7.2 = HLA-B7.2 (Homo sapiens, UniProt P01889); test: HLA-B7 peptide binding affinity assay
[1] = tested on: epitope-specific TMr+CD8+ T cells; details: median over 7 HLA-A2+ new-onset T1D patients; cited from earlier work

Sequence of HLA-B7.2 (P01889 25-299 limits assumed): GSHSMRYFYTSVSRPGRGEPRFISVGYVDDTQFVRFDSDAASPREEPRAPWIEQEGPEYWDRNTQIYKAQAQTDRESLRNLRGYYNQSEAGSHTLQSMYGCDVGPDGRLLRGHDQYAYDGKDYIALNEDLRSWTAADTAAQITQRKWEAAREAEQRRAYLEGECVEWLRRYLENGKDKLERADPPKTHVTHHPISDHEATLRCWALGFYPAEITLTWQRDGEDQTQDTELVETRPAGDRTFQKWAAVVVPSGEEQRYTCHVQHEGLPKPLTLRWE
Sequence of HLA-B7.2 (P61769 21-119 partner): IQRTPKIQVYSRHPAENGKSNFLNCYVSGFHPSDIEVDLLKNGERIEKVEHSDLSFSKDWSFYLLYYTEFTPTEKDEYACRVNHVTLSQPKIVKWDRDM

Compound | Kd (HLA-B7.2) | percent of epitope-specific T cells expressing IFNG mRNA, HLA-A2–restricted [1] | percent of epitope-specific T cells expressing TGFB mRNA, HLA-A2–restricted [1]
CC(C)C[C@H](NC(=O)[C@H](C)NC(=O)[C@H](CC(C)C)NC(=O)[C@H](CC(C)C)NC(=O)[C@H](C)NC(=O)[C@H](CC(C)C)NC(=O)[C@H](CC(C)C)NC(=O)[C@@H]1CCCN1C(=O)[C@@H](N)CC(C)C)C(=O)O [PPI8–16] (H-LPLLALLAL-OH) | 1090 nM |  | 
CC[C@H](C)[C@H](NC(=O)[C@@H](NC(=O)[C@@H]1CCCN1C(=O)[C@H](C)N)C(C)C)C(=O)N[C@@H](CCCCN)C(=O)N[C@@H](C)C(=O)N[C@@H](CCCNC(=N)N)C(=O)N[C@@H](CCSC)C(=O)N[C@@H](CCSC)C(=O)O [GAD530–538] (H-APVIKARMM-OH) | 61 nM |  | 
CC[C@H](C)[C@H](N)C(=O)N1CCC[C@H]1C(=O)N[C@@H](CO)C(=O)N[C@@H](CC(=O)O)C(=O)N[C@@H](CC(C)C)C(=O)N[C@@H](CCC(=O)O)C(=O)N[C@@H](CCCNC(=N)N)C(=O)N[C@@H](CCCNC(=N)N)C(=O)N[C@H](C(=O)N[C@@H](CC(C)C)C(=O)O)[C@@H](C)CC [GAD311–320] (H-IPSDLERRIL-OH) | 100 nM |  | 
PPI6–14: HLA-A2–restricted preproinsulin epitope used for comparison (RLLPLLALL; UniProt P01308 6-14, looked up, fragment) |  | 60% | 13%
